Measurements: publication PMC10117764, “The roles of serine hydrolases and serum albumin in alisol B 23-acetate hydrolysis in humans” (Frontiers in Pharmacology, 2023)

Experiments:
[1] = system: AB23A hydrolysis in human plasma; assay: Chemical inhibition assay of AB23A hydrolysis in human plasma; assay type: biochemical; conditions: human plasma 25% dilution, AB23A 20 μM, 1 h; GA 100 μM, boceprevir 20 μM, EDTA 20 μM
Procedure: (§1) The inhibitory effects of a series of selective inhibitors of human hydrolases against AB23A hydrolysis were assessed. The selective inhibitors of human hydrolases including BNPP (50 μM, a specific inactivator of CES), boceprevir (20 μM, a potent inhibitor for CTSA), LPA (100 μM, a selective inhibitor for CES2A), GA (100 μM, a cholinesterase inhibitor), EDTA (20 μM, a selective PONs inhibitor). The incubation system included PBS, inhibitors, HLMs (0.1 mg/mL)/human plasma (25% dilution), and AB23A (20 μM). After reacting for 1 h, ice-cold acetonitrile was used to terminate the reaction. The supernatants by centrifuging were used to quantify the formation rates of AB by LC-UV analysis.

[2] = system: AB23A hydrolysis in HLMs; assay: Chemical inhibition assay of AB23A hydrolysis in HLMs; assay type: biochemical, human; conditions: HLMs 0.1 mg/mL, AB23A 20 μM, 1 h; BNPP 50 μM, LPA 100 μM, GA 100 μM, boceprevir 20 μM, EDTA 20 μM
Procedure: as §1

[3] = system: T1, CC(=O)O[C@H](C[C@@H](C)C1=C2C[C@H](O)C3[C@@]4(C)CCC(=O)C(C)(C)C4CC[C@]3(C)[C@@]2(C)CC1)[C@H]1OC1(C)C; assay: Kinetic analysis of AB23A hydrolysis in hSA; assay type: in vitro ADME, human; conditions: other: hSA
T1 construct: purchased Sigma-Aldrich Lot#SLCC9268
Procedure: (§2) The enzymatic kinetics of AB23A hydrolysis in different tissue preparations (HLMs, HIMs, human plasma) and human recombinant enzymes (hCES1A, hCES2A, hSA, hBchE) were analyzed. The incubation system (200 μL) consisted of PBS, each tested enzyme, and AB23A (ranging from 0 to 1,000 μM). After incubating for 1 h, the supernatants were then used for LC-UV analysis. The kinetic parameters of AB23A hydrolysis were fitted by the following Michaelis−Menten Eq. 1 ([Zhang et al., 2022]). V=(Vmax×[S])⁄(Km+[S]) (1) Here, K m is the Michaelis constant of AB23A hydrolysis, V max is the maximum velocity of AB23A hydrolysis, V max /K m is used to calculate the intrinsic clearance (CL int ).

[4] = system: AB23A hydrolysis in HIMs; assay: Chemical inhibition assay of AB23A hydrolysis in HIMs; assay type: biochemical, human; conditions: BNPP 50 μM, LPA 100 μM
[5] = target: T2, FXR (Homo sapiens, UniProt Q96RI1); assay: FXR transcriptional activation, Dual-Luciferase Reporter Assay in HEK293T cells; assay type: cell-based
T2 construct: expressed in transfected cells; host or cells: HEK293T
T2 sequence (Q96RI1 1-486): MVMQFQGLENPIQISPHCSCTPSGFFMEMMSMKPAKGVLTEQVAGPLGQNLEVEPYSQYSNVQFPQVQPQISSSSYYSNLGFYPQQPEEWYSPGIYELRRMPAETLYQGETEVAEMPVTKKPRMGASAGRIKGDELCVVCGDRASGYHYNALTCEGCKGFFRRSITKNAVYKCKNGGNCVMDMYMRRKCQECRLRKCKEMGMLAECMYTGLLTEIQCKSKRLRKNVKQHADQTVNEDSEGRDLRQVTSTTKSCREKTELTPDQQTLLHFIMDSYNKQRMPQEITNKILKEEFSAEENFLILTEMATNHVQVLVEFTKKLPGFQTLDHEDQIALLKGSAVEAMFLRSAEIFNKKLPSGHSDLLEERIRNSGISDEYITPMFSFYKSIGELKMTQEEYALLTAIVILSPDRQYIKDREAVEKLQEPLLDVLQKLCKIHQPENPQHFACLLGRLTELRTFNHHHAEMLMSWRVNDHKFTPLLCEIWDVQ
T2 sequence (P19793 1-462 partner): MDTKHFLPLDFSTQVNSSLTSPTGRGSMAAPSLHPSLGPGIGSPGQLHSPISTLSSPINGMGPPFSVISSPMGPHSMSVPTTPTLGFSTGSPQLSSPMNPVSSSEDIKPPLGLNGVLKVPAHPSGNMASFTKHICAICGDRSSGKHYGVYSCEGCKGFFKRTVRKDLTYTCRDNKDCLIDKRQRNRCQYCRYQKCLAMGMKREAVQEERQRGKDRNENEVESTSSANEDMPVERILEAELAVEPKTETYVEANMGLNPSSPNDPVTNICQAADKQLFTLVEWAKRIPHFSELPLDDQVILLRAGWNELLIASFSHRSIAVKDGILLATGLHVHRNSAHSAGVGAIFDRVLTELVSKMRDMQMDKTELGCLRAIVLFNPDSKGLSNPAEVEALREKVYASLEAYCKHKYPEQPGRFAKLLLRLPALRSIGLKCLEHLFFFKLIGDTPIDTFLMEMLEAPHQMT
Procedure: The phFXR, phRXR (retinoid X receptor) and FXR-dependent reporter (EcRE-LUC) were expressed and cotransfected with the Gal4 reporter vector MH100 × 4-TK-Luc, then 1 μg of the relevant plasmid was combined with 1 μg of reporter plasmids and 0.1 μg of pREP7 (Renilla Luciferase) reporter, which was used to normalize transfection efficiencies. HEK293T cells were dispensed into 96 well plates using a volume of 100 μL and 1 × 10^5 cells per well.

[6] = design: method as in Liu et al. (2022); conditions: oral administration of Qingfei Paidu Decoction, ref Liu et al. (2022); cited from earlier work
[7] = substrate: CC(=O)O[C@H](C[C@@H](C)C1=C2C[C@H](O)C3[C@@]4(C)CCC(=O)C(C)(C)C4CC[C@]3(C)[C@@]2(C)CC1)[C@H]1OC1(C)C; assay: Kinetic analysis of AB23A hydrolysis in hCES1A; assay type: in vitro ADME, human; conditions: other: hCES1A
Procedure: as §2

[8] = substrate: CC(=O)O[C@H](C[C@@H](C)C1=C2C[C@H](O)C3[C@@]4(C)CCC(=O)C(C)(C)C4CC[C@]3(C)[C@@]2(C)CC1)[C@H]1OC1(C)C; assay: Kinetic analysis of AB23A hydrolysis in hCES2A; assay type: in vitro ADME, human; conditions: other: hCES2A
Procedure: as §2

O=C(O)CN(CCN(CC(=O)O)CC(=O)O)CC(=O)O [EDTA, Ethylenediaminetetraacetic acid]
Effect on formation of AB (AB23A hydrolysis) in human plasma [1]: negligible effects | Effect on AB23A hydrolysis in HLMs [2]: negligible effects

hSA (Homo sapiens)
Vmax [3]: 0.0004 µmol/min/mg | Vmax/Km [3]: 1.53 µL/min/mg

O=[N+]([O-])c1ccc(OP(=O)(O)Oc2ccc([N+](=O)[O-])cc2)cc1 [BNPP, bis(p-nitrophenyl) phosphate]
Effect on formation of AB (AB23A hydrolysis) in HIMs [4]: near-completely inhibited | Effect on AB23A hydrolysis in HLMs [2]: completely blocked

CN(C)C(=O)C(CCN1CCC(O)(c2ccc(Cl)cc2)CC1)(c1ccccc1)c1ccccc1 [LPA, Loperamide]
Effect on formation of AB (AB23A hydrolysis) in HIMs [4]: partially inhibit | Effect on AB23A hydrolysis in HLMs [2]: slightly blocked

CC(C)(C)NC(=O)N[C@H](C(=O)N1C[C@H]2[C@@H]([C@H]1C(=O)NC(CC1CCC1)C(=O)C(N)=O)C2(C)C)C(C)(C)C (stereo partly shown) [boceprevir, Boceprevir]
Effect on formation of AB (AB23A hydrolysis) in human plasma [1]: negligible effects | Effect on AB23A hydrolysis in HLMs [2]: negligible effects

COc1ccc2c3c1O[C@H]1C[C@@H](O)C=C[C@@]31CCN(C)C2 [GA, galanthamine]
Effect on formation of AB (AB23A hydrolysis) in human plasma [1]: significantly inhibit | Effect on AB23A hydrolysis in HLMs [2]: slightly blocked

C[C@H](C[C@H](O)[C@H]1OC1(C)C)C1=C2C[C@H](O)[C@H]3[C@@]4(C)CCC(=O)C(C)(C)[C@@H]4CC[C@]3(C)[C@@]2(C)CC1 [AB, alisol B]
FXR agonist effect (transcriptional activation) ([5]; HEK293T cells, 5, 10, 20 μM, 48 h, GW4064 (10 μM) set at 100%): dose-dependently agonize FXR | FXR activation compared with AB23A ([5]; HEK293T cells, low doses (5 and 10 μM)): slightly more potent than AB23A | Detection in mice plasma and liver [6]: readily detected

B1: hCES1A (Homo sapiens) (protein)
chain: GHPSSPPVVDTVHGKVLGKFVSLEGFAQPVAIFLGIPFAKPPLGPLRFTPPQPAEPWSFVKNATSYPPMCTQDPKAGQLLSELFTNRKENIPLKLSEDCLYLNIYTPADLTKKNRLPVMVWIHGGGLMVGAASTYDGLALAAHENVVVVTIQYRLGIWGFFSTGDEHSRGNWGHLDQVAALRWVQDNIASFGGNPGSVTIFGESAGGESVSVLVLSPLAKNLFHRAISESGVALTSVLVKKGDVKPLAEQIAITAGCKTTTSAVMVHCLRQKTEEELLETTLKMKFLSLDLQGDPRESQPLLGTVIDGMLLLKTPEELQAERNFHTVPYMVGINKQEFGWLIPMQLMSYPLSEGQLDQKTAMSLLWKSYPLVCIAKELIPEATEKYLGGTDDTVKKKDLFLDLIADVMFGVPSVIVARNHRDAGAPTYMYEFQYRPSFSSDMKPKTVIGDHGDELFSVFGAPFLKEGASEEEIRLSKMVMKFWANFARNGNPNGEGLPHWPEYNQKEGYLQIGANTQAAQKLKDKEVAFWTNLFAKKAVEKPPQTE
notes: 10xHis; made in house; host or cells: HEK293-F cells, pTT5 vector, purified from conditioned medium
Vmax [7]: 0.0235 µmol/min/mg | Vmax/Km [7]: 123 µL/min/mg

B2: hCES2A (Homo sapiens) (protein)
chain: QDSASPIRTTHTGQVLGSLVHVKGANAGVQTFLGIPFAKPPLGPLRFAPPEPPESWSGVRDGTTHPAMCLQDLTAVESEFLSQFNMTFPSDSMSEDCLYLSIYTPAHSHEGSNLPVMVWIHGGALVFGMASLYDGSMLAALENVVVVIIQYRLGVLGFFSTGDKHATGNWGYLDQVAALRWVQQNIAHFGGNPDRVTIFGESAGGTSVSSLVVSPISQGLFHGAIMESGVALLPGLIASSADVISTVVANLSACDQVDSEALVGCLRGKSKEEILAINKPFKMIPGVVDGVFLPRHPQELLASADFQPVPSIVGVNNNEFGWLIPKVMRIYDTQKEMDREASQAALQKMLTLLMLPPTFGDLLREEYIGDNGDPQTLQAQFQEMMADSMFVIPALQVAHFQCSRAPVYFYEFQHQPSWLKNIRPPHMKADHGDELPFVFRSFFGGNYIKFTEEEEQLSRKMMKYWANFARNGNPNGEGLPHWPLFDQEEQYLQLNLQPAVGRALKAHRLQFWKKALPQKIQELEEPEERHTEL
notes: as for B1
Vmax [8]: 0.0125 µmol/min/mg | Vmax/Km [8]: 212 µL/min/mg
